Key:
[1] = Solubilization kinetics of compacts, USP <711> paddle apparatus (Example B1); type: physicochemical; conditions: 200 mM phosphate buffer pH 6.8, 37° C., 75 rpm
Protocol: To evaluate solubilization kinetics of NaPheC6 and NaPheC8 in similar conditions, compacts are prepared in the following manner:
In a manual tablet press (LFA TDP 0 Desktop tablet press) equipped with cylindrical 8 mm diameter punches, 200 +10 mg of permeation enhancer is filled into the die cavity. Compression into cylindrical compacts of 4±0.5 mm height yields compacts with apparent volumetric mass of 1±0.2 g/mL.
These compacts are put into a capsule sinker, then dissolved using an USP <711>-compliant apparatus (type 2-Paddle apparatus). Dissolution is done into 700 mL of 200 mM phosphate buffer, pH 6.8. Temperature is set at 37° C. and agitation at 75 rpm.
Sampling of the dissolution medium followed by HPLC dosage yields the following dissolution profiles for the compounds NaPheC6 and NaPheC8, respectively: […]

Caco-2 monolayers = type: in vitro ADME
Protocol: An in vitro permeability assay was conducted in order to evaluate the impact of NaPheC8 on the passage of peptides through a monolayer of intestinal epithelial cells. Caco-2 cells were seeded on a polycarbonate membrane that separate basal and apical compartments of a Transwell system and cultured for 21-days.
Insulin lispro and semaglutide formulations (100 μM) were added into the apical compartment of the culture system in presence or absence of different concentrations of NaPheC8.
In vitro absorption of peptides was estimated by quantifying insulin lispro or semaglutide in the basal compartment 1 hour after the addition of formulations (quantification by ELISA).
Peptide permeability in the presence of NaPheC8, expressed as a fold-increase compared to the treatment with the peptide alone, is reported in the table below: […]

Row | dissolved (%) ([1]; 20 seconds) | dissolved (%) ([1]; 40 seconds) | dissolved (%) ([1]; 60 seconds) | dissolved (%) ([1]; 80 seconds) | dissolved (%) ([1]; 100 seconds) | Structure (SMILES) | effect on passage of peptides through Caco-2 monolayers (in words) (Caco-2 monolayers)
1 | 47 | 100 | 100 | 100 | 100 | CCCCCC(=O)N[C@@H](Cc1ccccc1)C(=O)O [NaPheC6, N-hexanoyl-Phenylalanine] | 
2 | 15 | 37 | 57 | 89 | 99 | CCCCCCCC(=O)N[C@@H](Cc1ccccc1)C(=O)[O-].[Na+] [NaPheC8, sodium salt of N-octanoyl phenylalanine] | favors the passage of these peptides through Caco-2 monolayers, in a dose-dependant manner
